Test [1] has as its system Toxoplasma gondii. The test is described as follows: Antiparasitic activity against Toxoplasma gondii after 4 days by chlorophenol red-beta-D-galactosidase based assay. The class given is functional, organism-based. The settings on record: 96 h.
The subject of another test is Cryptosporidium parvum. The test can be described thus: Antiparasitic activity against Cryptosporidium parvum infected in human HCT8 cells incubated for 24 hrs post 3 hrs infection by Hoechst 33258 staining based epifluorescence microscopy. The class given is functional.
For test [2], the system named is Toxoplasma gondii. The test is described as follows: Antiparasitic activity against tachyzoite stage of Toxoplasma gondii RH infected in Swiss Webster mouse assessed as mouse survival for 60 days post infection. The class given is functional.
For test [3], the system named is Toxoplasma gondii. The test can be described thus: Antiparasitic activity against Toxoplasma gondii assessed as population with apicoplast loss after 4 days by Hoechst staining based microscopy. It is filed as functional.
The test system of test [4] is Toxoplasma gondii. The test can be described thus: Antiparasitic activity against tachyzoite stage of Toxoplasma gondii infected in LLC-MK2 cells after 6 hrs. It is filed as functional.

pIC50: −log10 of the molar value.

With `O=[N+]([O-])c1cccc2ncccc12`, the pIC50 in the test with Toxoplasma gondii [1] is 5.22 to 5.30.

`Cc1cccc(-n2ncc3c(O)nc(-n4nc(C)cc4NC(=O)c4cc5ccccc5o4)nc32)c1` gave an Activity in the test with Cryptosporidium parvum of 0.12 µM.

For the compound `Clc1ccc2ccccc2n1`, the pIC50 with Toxoplasma gondii [1] is 5.22 to 5.30.

Take `CCOC(=O)c1cn(C2CC2)c2cc(N3CCN(Cc4ccccc4)CC3)c(F)cc2c1=O`: the Survival with Toxoplasma gondii [2] is 13 - 25%.

With `[O-][n+]1cccc2ccccc21`, the pIC50 with Toxoplasma gondii [1] is 5.22 to 5.30.

On to `FC(F)(F)c1ccc2c(NCCCN3CCN(c4cccc5nc(Cl)ccc45)CC3)ccnc2c1`, for which the pIC50 in the test with Toxoplasma gondii [1] is 6.37. The Activity in the test with Toxoplasma gondii [3] is 40 - 45%.

Turning to `O=C(O)c1cn(C2CC2)c2cc(N3CCN(CC45CC6CC(CC(C6)C4)C5)CC3)c(F)cc2c1=O`, the Survival with Toxoplasma gondii [2] is given as 13 - 25%.

`COc1cccc(C(=O)NC(c2ccc(C)cc2)c2cc(Cl)c3cccnc3c2O)c1` (centres undefined) had an Activity in the test with Cryptosporidium parvum of 0.054 µM.

Consider `O=C1C2=C(C(=O)c3ccccc31)[C@H]1Oc3ccc(Br)cc3[C@H]1CO2`, for which, in the test on Toxoplasma gondii [4], the Activity was less than 1 µM.

Turning to `CCOC(=O)c1cn(C2CC2)c2cc(N3CCNCC3)c(F)cc2c1=O` [CIPROFLOXACIN ETHYL ESTER], the Survival in the test on Toxoplasma gondii [2] is 13 - 25%.

Take `O=C(O)c1cn(C2CC2)c2cc(N3CCNCC3)c(F)cc2c1=O` [CIPROFLOXACIN]: the Survival in the test on Toxoplasma gondii [2] is listed as 13 - 25%.

Regarding `Oc1cccc2cccnc12` [OXYQUINOLINE], in the test with Toxoplasma gondii [1], the pIC50 was 6.67.

`c1ccc2ncccc2c1` [QUINOLINE] showed a pIC50 in the test with Toxoplasma gondii [1] of 5.22 to 5.30.

What is called pIC50 is the IC50 on a negative log10 scale, so that one unit is a factor of ten. Low readings indicate a high IC50, high ones a low IC50.

These data come from ChEMBL document CHEMBL4177528, “Recent developments in drug discovery against the protozoal parasites Cryptosporidium and Toxoplasma” (Bioorg Med Chem Lett, 2017).
